{"source": "patent US20240217963A1", "about": "“RECEPTOR-INTERACTING PROTEIN 1 INHIBITORS, PREPARATIONS, AND USES THEREOF” (SIRONAX LTD., priority 2021, published 2024)", "note": "pEC50: −log10 of the molar value."}
{"target": "T1, RIP1 (Homo sapiens, UniProt Q13546)", "T1 sequence (Q13546 1-671)": "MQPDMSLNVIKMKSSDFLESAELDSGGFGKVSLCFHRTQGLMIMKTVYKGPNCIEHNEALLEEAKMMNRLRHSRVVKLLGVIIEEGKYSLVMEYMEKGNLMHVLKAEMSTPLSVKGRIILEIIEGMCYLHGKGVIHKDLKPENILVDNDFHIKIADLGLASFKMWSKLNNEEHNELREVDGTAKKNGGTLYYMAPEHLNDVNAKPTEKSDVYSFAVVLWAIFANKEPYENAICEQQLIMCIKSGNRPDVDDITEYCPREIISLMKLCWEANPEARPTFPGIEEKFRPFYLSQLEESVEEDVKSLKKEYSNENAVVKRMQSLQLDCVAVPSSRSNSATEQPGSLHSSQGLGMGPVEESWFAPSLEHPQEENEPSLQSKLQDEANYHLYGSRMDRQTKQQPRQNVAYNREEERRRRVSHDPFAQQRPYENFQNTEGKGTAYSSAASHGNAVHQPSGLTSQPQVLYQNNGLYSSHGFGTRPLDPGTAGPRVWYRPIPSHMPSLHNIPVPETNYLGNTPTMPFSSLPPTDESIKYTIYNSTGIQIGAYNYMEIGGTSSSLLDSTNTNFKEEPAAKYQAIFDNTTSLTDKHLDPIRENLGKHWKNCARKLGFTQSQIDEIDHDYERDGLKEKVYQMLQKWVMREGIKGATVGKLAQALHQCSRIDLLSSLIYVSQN", "test": "Cellular RIP1 inhibitory activity: HT-29 necroptosis (TNFα/SMAC mimetic/zVAD-FMK) CellTiter-Glo viability assay", "type": "cell-based", "conditions": "HT-29 cells, TNF-α 10 ng/ml + SMAC mimetic 6 μM + zVAD-FMK 10 μM, 20 hours, geometric mean, read-out: EC50 Values of in vitro Cellular RIP1 Inhibitory Activity", "procedure": "Compounds 1-99 (denoted as Cmpd Nos. 1 through 99 in Table 2 below) of the disclosure were tested for binding and cellular RIP1 inhibitory activity following the experimental procedures described below. Cell Seeding • 1. HT-29 cells were checked every day to make sure that they were healthy and growing as expected. They were subjected to sub-culturing when they were approximately 80% confluent. • 2. The culture medium, McCOY's 5 A medium (Gibco, Cat No. 16600-082) with 10% fetal bovine serum or FBS (Gibco, Cat No. 10099-141C), was pre-warmed in a 37° C. water bath for at least 30 min. • 3. When the cells had reached a desired level of confluency of 80% in a T75 flask, the medium was aspirated, and the cells were washed with warm phosphate buffered saline or PBS two times. • 4. 2-3 ml fresh warm trypsin (Gibco, Cat No. 25200-056) solution was added to the washed cells. The flask with the cells was transferred to a 37° C. incubator. • 5. After 5 minutes, the side of the flask was tapped, and the flask was examined under a microscope for detachment of the cells to the flask. If necessary, the cells were kept in the incubator for an additional 5-10 minutes, with occasional tapping, until lifting was complete. • 6. The trypsin reaction was neutralized by transferring 6-9 ml cell culture medium to sterile 15 ml conical tubes, and by centrifuging the cell culture at 300×g for 7 minutes to pellet the cells (supernatant decanted). • 7. The cells were resuspended in fresh cell culture medium and the cell counting was performed using a hemocytometer. • 8. 100 μl of the resuspended cell culture medium containing ˜5,000 cells were transferred into each well of the sterile 96-well cell culture plate (Corning 3903) and cultured overnight at 37° C. with 5% CO2. Compound Titration and Treatment • 1. All test compounds were dissolved in DMSO (Dimethyl sulfoxide) to create a 20 mM stock. • 2. 3 μl of each compound 20 mM stock was mixed with 27 μl DMSO, and the compound solution was further diluted at a titration ratio of 1:3 (20 μl compound solution+40 μl DMSO) till the 10 points end. • 3. All culture medium was removed from assay plates filled with HT-29 cell cultures. […] 0.5 μL of the diluted compound solution was added to the corresponding 96-well assay plates. • 5. The assay plates were incubated for 20 hours at 37° C. with 5% CO2. Cell Viability Detection • 1. The CellTiter-Glo® Luminescent Cell Viability Assay was employed to detect the ATP levels of viable HT-29 cells. • 2. The CellTiter-Glo® buffer and the lyophilized substrate were equilibriated to room temperature prior to use. • 3. The CellTiter-Glo® substrate was resuspended with CellTiter-Glo® buffer, then mixed by gently vortexing to obtain a homogeneous solution. • 4. 20 μl the enzyme/substrate mixture was transferred by multi-channel pipetting into 96-well assay plates. • 5. The assay plates were placed on an orbital shaker and the contents were shaken for 3 minutes to induce cell lysis. • 6. The assay plates were incubated at room temperature for 10 minutes to stabilize the luminescent signal. • 7. The luminescence signals were read and recorded with EnVision. • 8. The geometric mean EC50 values were calculated from 10 points response dose with duplicates. In Table 2, activity is provided as follows: +++=0.1 nM≤EC50<100 nM; ++=100 nM≤EC50<1000 nM; +=1000 nM≤EC50<10000 nM."}
{"smiles": "Cc1cnn(C)c1-c1nc(N2CCC(C(=O)NCc3ccn(C)n3)CC2)ncc1F", "note": "[Compound 44, 1-(4-(1,4-dimethyl-1H-pyrazol-5-yl)-5-fluoropyrimidin-2-yl)-N-((1-methyl-1H-pyrazol-3-yl)methyl)piperidine-4-carboxamide]", "pEC50": "5.00 to 6.00"}
{"smiles": "Cc1cnn(C)c1-c1nc(N2CCC(F)(C(=O)N(O)Cc3cc(F)cc(F)c3)CC2)ncc1F", "note": "[Compound 17, N-(3,5-difluorobenzyl)-1-(4-(1,4-dimethyl-1H-pyrazol-5-yl)-5-fluoropyrimidin-2-yl)-4-fluoro-N-hydroxypiperidine-4-carboxamide]", "pEC50": "7.00 to 10.00"}
{"smiles": "[2H]C([2H])([2H])N(C(=O)C1CCN(c2ncc(F)c(-n3nc(C)nc3C)n2)CC1)C([2H])([2H])c1cc(F)cc(F)c1F", "note": "[Compound 76, 1-(4-(3,5-dimethyl-1H-1,2,4-triazol-1-yl)-5-fluoropyrimidin-2-yl)-N-(methyl-d3)-N-((2,3,5-trifluorophenyl)methyl-d2)piperidine-4-carboxamide]", "pEC50": "7.00 to 10.00"}
{"smiles": "[2H]C([2H])([2H])N(Cc1nc(C)cs1)C(=O)C1CCN(c2ncc(F)c(-c3c(C)cnn3C)n2)CC1", "note": "[Compound 78, 1-(4-(1,4-dimethyl-1H-pyrazol-5-yl)-5-fluoropyrimidin-2-yl)-N-(methyl-d3)-N-((4-methylthiazol-2-yl)methyl)piperidine-4-carboxamide]", "pEC50": "7.00 to 10.00"}
{"smiles": "Cc1cnn(C)c1-c1nc(N2CCC(C(=O)N(C)Cc3cscn3)CC2)ncc1F", "note": "[Compound 93, 1-(4-(1,4-dimethyl-1H-pyrazol-5-yl)-5-fluoropyrimidin-2-yl)-N-methyl-N-(thiazol-4-ylmethyl) piperidine-4-carboxamide]", "pEC50": "7.00 to 10.00"}
{"smiles": "Cc1cnn(C)c1-c1nc(N2CCC(C(=O)NCc3nc(C)c(C)s3)CC2)ncc1F", "note": "[Compound 49, 1-(4-(1,4-dimethyl-1H-pyrazol-5-yl)-5-fluoropyrimidin-2-yl)-N-((4,5-dimethylthiazol-2-yl)methyl)piperidine-4-carboxamide]", "pEC50": "6.00 to 7.00"}
{"smiles": "Cc1cnn(C)c1-c1nc(N2CCC(C(=O)N(O)Cc3cc(F)cc(C#N)c3)CC2)ncc1F", "note": "[Compound 32, N-(3-cyano-5-fluorobenzyl)-1-(4-(1,4-dimethyl-1H-pyrazol-5-yl)-5-fluoropyrimidin-2-yl)-N-hydroxypiperidine-4-carboxamide]", "pEC50": "7.00 to 10.00"}
{"smiles": "CCN(Cc1cscn1)C(=O)C1CCN(c2ncc(F)c(-c3c(C)cnn3C)n2)CC1", "note": "[Compound 94, 1-(4-(1,4-dimethyl-1H-pyrazol-5-yl)-5-fluoropyrimidin-2-yl)-N-ethyl-N-(thiazol-4-ylmethyl) piperidine-4-carboxamide]", "pEC50": "7.00 to 10.00"}
{"smiles": "Cc1cnn(C)c1-c1nc(N2CCC(C(=O)NCc3cnn(C)c3)CC2)ncc1F", "note": "[Compound 45, 1-(4-(1,4-dimethyl-1H-pyrazol-5-yl)-5-fluoropyrimidin-2-yl)-N-((1-methyl-1H-pyrazol-4-yl)methyl)piperidine-4-carboxamide]", "pEC50": "5.00 to 6.00"}
{"smiles": "Cc1nc(C)n(-c2nc(N3CCC(F)(C(=O)N(O)Cc4cc(F)cc(F)c4)CC3)ncc2F)n1", "note": "[Compound 14, N-(3,5-difluorobenzyl)-1-(4-(3,5-dimethyl-1H-1,2,4-triazol-1-yl)-5-fluoropyrimidin-2-yl)-4-fluoro-N-hydroxypiperidine-4-carboxamide]", "pEC50": "7.00 to 10.00"}
{"smiles": "Cc1nc(C)n(-c2nc(N3CCC(C(=O)N(C)Cc4cc(F)cc(F)c4)CC3)ncc2F)n1", "note": "[Compound 64, N-(3,5-difluorobenzyl)-1-(4-(3,5-dimethyl-1H-1,2,4-triazol-1-yl)-5-fluoropyrimidin-2-yl)-N-methylpiperidine-4-carboxamide]", "pEC50": "7.00 to 10.00"}
{"smiles": "Cc1cnn(C)c1-c1nc(N2CCC(C(=O)NCc3cncs3)CC2)ncc1F", "note": "[Compound 58]", "pEC50": "6.00 to 7.00"}
{"smiles": "CCN(Cc1cncs1)C(=O)C1CCN(c2ncc(F)c(-c3c(C)cnn3C)n2)CC1", "note": "[Compound 99, 1-(4-(1,4-dimethyl-1H-pyrazol-5-yl)-5-fluoropyrimidin-2-yl)-N-ethyl-N-(thiazol-5-ylmethyl)piperidine-4-carboxamide]", "pEC50": "7.00 to 10.00"}
{"smiles": "Cc1nc(C)c(CNC(=O)C2CCN(c3ncc(F)c(-c4c(C)cnn4C)n3)CC2)s1", "note": "[Compound 22, 1-(4-(1,4-dimethyl-1H-pyrazol-5-yl)-5-fluoropyrimidin-2-yl)-N-((2,4-dimethylthiazol-5-yl)methyl)piperidine-4-carboxamide]", "pEC50": "6.00 to 7.00"}
{"smiles": "Cc1cnn(C)c1-c1nc(N2CCC(C(=O)N(O)Cc3cccnc3F)CC2)ncc1F", "note": "[Compound 25, 1-(4-(1,4-dimethyl-1H-pyrazol-5-yl)-5-fluoropyrimidin-2-yl)-N-((2-fluoropyridin-3-yl)methyl)-N-hydroxypiperidine-4-carboxamide]", "pEC50": "7.00 to 10.00"}
{"smiles": "Cc1cnn(C)c1-c1ccc(OC2CC(C(=O)N(O)Cc3cc(F)cc(F)c3)C2)c(F)n1", "note": "(centres unmarked) [Compound 54, N-(3,5-difluorobenzyl)-3-((6-(1,4-dimethyl-1H-pyrazol-5-yl)-2-fluoropyridin-3-yl)oxy)-N-hydroxycyclobutane-1-carboxamide]", "pEC50": "6.00 to 7.00"}
{"smiles": "Cc1ncc(CNC(=O)C2CCN(c3ncc(F)c(-c4c(C)cnn4C)n3)CC2)s1", "note": "[Compound 50, 1-(4-(1,4-dimethyl-1H-pyrazol-5-yl)-5-fluoropyrimidin-2-yl)-N-((2-methylthiazol-5-yl)methyl)piperidine-4-carboxamide]", "pEC50": "6.00 to 7.00"}
{"smiles": "Cc1cnn(C)c1-c1nc(N2CCC(C(=O)N(O)Cc3ccc(F)nc3)CC2)ncc1F", "note": "[Compound 26]", "pEC50": "7.00 to 10.00"}
{"smiles": "Cc1cnn(C)c1-c1nc(N2CCC(C(=O)N(O)Cc3cncs3)CC2)ncc1F", "note": "[Compound 16, 1-(4-(1,4-dimethyl-1H-pyrazol-5-yl)-5-fluoropyrimidin-2-yl)-N-hydroxy-N-(thiazol-5-ylmethyl)piperidine-4-carboxamide]", "pEC50": "7.00 to 10.00"}
{"smiles": "CCN(Cc1nccs1)C(=O)C1CCN(c2ncc(F)c(-c3c(C)cnn3C)n2)CC1", "note": "[Compound 96, 1-(4-(1,4-dimethyl-1H-pyrazol-5-yl)-5-fluoropyrimidin-2-yl)-N-ethyl-N-(thiazol-2-ylmethyl)piperidine-4-carboxamide]", "pEC50": "7.00 to 10.00"}
{"smiles": "Cc1ncc(CN(O)C(=O)C2CCN(c3ncc(F)c(-c4c(C)cnn4C)n3)CC2)s1", "note": "[Compound 24, 1-(4-(1,4-dimethyl-1H-pyrazol-5-yl)-5-fluoropyrimidin-2-yl)-N-hydroxy-N-((2-methylthiazol-5-yl)methyl)piperidine-4-carboxamide]", "pEC50": "7.00 to 10.00"}
{"smiles": "CN(Cc1cc(F)cc(F)c1F)C(=O)C1CCN(c2ncc(F)c(-c3ncnn3C)n2)CC1", "note": "[Compound 68, 1-(5-fluoro-4-(1-methyl-1H-1,2,4-triazol-5-yl)pyrimidin-2-yl)-N-methyl-N-(2,3,5-trifluorobenzyl)piperidine-4-carboxamide]", "pEC50": "7.00 to 10.00"}
{"smiles": "Cc1ncc(CN(C)C(=O)C2CCN(c3ncc(F)c(-c4c(C)cnn4C)n3)CC2)s1", "note": "[Compound 91, 1-(4-(1,4-dimethyl-1H-pyrazol-5-yl)-5-fluoropyrimidin-2-yl)-N-methyl-N-((2-methylthiazol-5-yl)methyl)piperidine-4-carboxamide]", "pEC50": "7.00 to 10.00"}
